Results on five compounds are retold here after ChEMBL document CHEMBL1201862, “PubChem BioAssay data set” (2004).

Among the test systems are HCC 2998; KM12; SF-295; CAKI-1; RXF 393; HCT-116; SW-620; SK-MEL-5; HT-29; HCT-15; A498; ACHN; OVCAR-8; SF-268; IGROV-1; NCI-H23; K562.
What all share (test): NCI tumour cell line growth inhibition, 48 h

Structures are written as SMILES.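 Cultured in 96-well plates, cells were exposed to test compound for 48 hours across five concentrations. Here, GI50 denotes the concentration required for 50% inhibition of growth.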 Activity calls are given as the source filed them. No stated cut-off is given here; in the data, active = GI50 up to about 1.1 µM and inactive = higher. Bounds are passed on as bounds.

Consider `c1ccc(OCc2nnc3n2N=C(c2ccccc2)CS3)cc1`, for which the GI50 in the test on HCC 2998 is > 100 µM (inactive); with KM12 it was > 100 µM (inactive); in the test with SF-295, > 100 µM (inactive); in the test with CAKI-1 it was 71 µM (inactive); in the test on RXF 393, > 100 µM (inactive); with HCT-116, > 100 µM (inactive). Moreover, the GI50 with SW-620 is > 100 µM (inactive); in the test with SK-MEL-5 it was > 100 µM (inactive); in the test on HT-29 it was > 100 µM (inactive); with HCT-15, over 100 µM; with A498, 53.5 µM (inactive); with ACHN, > 100 µM (inactive). The GI50 in the test on OVCAR-8, in the test with SF-268, in the test with IGROV-1, in the test on NCI-H23 and with K562 was > 100 µM (inactive) throughout.

Turning to `Nc1ncnc2c(C3OC(CO)C(O)C3O)scc12` (stereo not given), the GI50 with HCC 2998 is 0.00504 µM (active); in the test on KM12 it was < 0.001 µM (active); with SF-295, 0.129 µM (active); with CAKI-1, < 0.01 µM (active); in the test with RXF 393 it was 0.222 µM (active); in the test with HCT-116 it was 0.00885 µM (active). In addition, the GI50 is 0.0192 µM (active) with SW-620; 0.346 µM (active) with SK-MEL-5; 0.00458 µM (active) in the test with HT-29; 0.00278 µM in the test on HCT-15; 0.0316 µM (active) in the test on A498; 0.0877 µM (active) in the test with ACHN. Further, the GI50 in the test with OVCAR-8 is 0.00179 µM (active); with SF-268 it was 1.77 µM (inactive); in the test on IGROV-1 it was 0.513 µM (active); with NCI-H23 it was 0.152 µM (active); with K562 it was 0.00262 µM (active).

For `CCOC(=O)c1nc2ccc([N+](=O)[O-])cc2c2c1CCO2`, the GI50 with HCC 2998, with KM12, with SF-295, in the test on CAKI-1, with RXF 393 and with HCT-116 was > 100 µM (inactive) throughout. For the same compound, the GI50 with SW-620 was > 100 µM (inactive); in the test on SK-MEL-5, > 100 µM (inactive); in the test with HT-29, > 100 µM (inactive); in the test on HCT-15, over 100 µM; in the test on A498, > 100 µM (inactive); in the test with ACHN, > 100 µM (inactive). Moreover, the GI50 with OVCAR-8, in the test with SF-268, in the test on IGROV-1, in the test with NCI-H23 and in the test with K562 was > 100 µM (inactive) each time.

Turning to `CC1CN1c1c(C(=O)/C=C/c2ccc(F)cc2)c(-c2ccccc2)nn(C)c1=O` (stereo not given), the GI50 in the test with HCC 2998 is 15.2 µM (inactive); in the test on KM12, 15.7 µM (inactive); in the test on SF-295, 16.2 µM (inactive); with CAKI-1, > 10 µM (inactive); in the test with RXF 393 it was 10.3 µM (inactive); with HCT-116 it was 13.5 µM (inactive). In addition, the GI50 in the test with SW-620 is 17.9 µM (inactive); in the test on SK-MEL-5, 16 µM (inactive); in the test on HT-29, 16.9 µM (inactive); with HCT-15 it was over 10 µM; in the test on A498 it was > 10 µM (inactive); with ACHN it was 16.3 µM (inactive). The GI50 with OVCAR-8 was 14.2 µM (inactive); in the test with SF-268 it was 16.3 µM (inactive); in the test with IGROV-1, 19.8 µM (inactive); in the test with NCI-H23, 14 µM (inactive); in the test on K562 it was > 10 µM (inactive).

As for `CC1=C2[C@H](c3ccccc3)C3C=CC2(c2ccccc23)N(C(=O)C(c2ccccc2)c2ccccc2)C1=O` (stereo not given in full), the GI50 with HCC 2998, in the test on KM12, with SF-295, in the test with CAKI-1, in the test on RXF 393 and in the test with HCT-116 was > 100 µM (inactive) in each case. The GI50 was > 100 µM (inactive) in the test on SW-620; > 100 µM (inactive) in the test on SK-MEL-5; > 100 µM (inactive) in the test on HT-29; over 100 µM in the test on HCT-15; > 100 µM (inactive) in the test with A498; > 100 µM (inactive) in the test with ACHN. Moreover, the GI50 in the test with OVCAR-8, with SF-268, in the test on IGROV-1, in the test on NCI-H23 and in the test with K562 was > 100 µM (inactive) in each case.
